Experimental data: patent US11491120B2, “Pharmacological prophylactics against stress-induced affective disorders in females” (The Trustees of Columbia University in the City of New York, priority 2017, dated 2022)
“Also recorded” adds a separate entry of the source.

Experiments:
female 129S6/SvEv mice [1] = test: Contextual fear conditioning (CFC), 3-shock, freezing in training and context re-exposure
male mice = test: Prophylactic efficacy in male mice (immobility in the forced swim test); format: in vivo, mouse
female 129S6/SvEv mice [2] = test: Forced swim test after 10-day chronic immobilization stress (CIS); format: in vivo, mouse; conditions: 0.025 mg/kg, 1 week prophylactic drug
Description: The CIS procedure induces a depressive-like phenotype in test subjects and has both predictive and face validity (54). Here, we used an adapted protocol from Ramirez et al. (55).
As previously tested in male mice (18), we validated our findings in a model of chronic stress. […] Drug dosages were chosen based on results from FIG. 1 and used for the remainder of the project unless otherwise specified. One week later, a 10-day CIS protocol was administered. Subsequently, mice were tested in the FST.

[3] = Contextual Fear Conditioning Training, Dunnett test Sal vs. drug (10), 1 week prophylactic drug
[4] = Ovariectomized cohort, 1 week prophylactic drug, Contextual Fear Conditioning Re-exposure, FIG. 10B, Sham mice, K (10), (2R,6R)-HNK (0.025)
[5] = Ovariectomized cohort, 1 week prophylactic drug, Contextual Fear Conditioning Re-exposure, FIG. 10C, Sham mice, K (10), (2R,6R)-HNK (0.025)
[6] = Ovariectomized, E2/P4 replacement, 1 week prophylactic drug, Contextual Fear Conditioning Training, FIG. 10D, Vehicle vs E2/P4, same drug, K (10), (2R,6R)-HNK (0.025)
[7] = Sal vs. (2R,6R)-HNK (0.025), Fisher's PLSD, 1 week prophylactic drug, learned helplessness stress, Contextual Fear Conditioning Re-exposure
[8] = Sal vs. (2R,6R)-HNK (0.025), Fisher's PLSD, Stress, antidepressant drug/Contextual Fear Conditioning Training

## N[C@@]1(c2ccccc2Cl)CCC[C@@H](O)C1=O [(2R,6R)-HNK, (2R,6R)-hydroxynorketamine]
Female 129S6/SvEv mice [1]; [3]
  p, Freezing (min 1-5): 0.1798
  p, Freezing (min 4): 0.4387
  p, Freezing (min 5): 0.3423
Female 129S6/SvEv mice [1]; Ovariectomized cohort, 1 week prophylactic drug, Contextual Fear Conditioning Re-exposure, FIG. 10B, OVX mice, K (10), (2R,6R)-HNK (0.025)
  p, Freezing (min 1-5), Fisher's PLSD, OVX Sal vs OVX drug: 0.2290
Female 129S6/SvEv mice [1]; [4]
  * (significance), Freezing (min 1-5), Fisher's PLSD, Sham Sal vs Sham drug: * (* p<0.05)
  p, Freezing (min 1-5), Fisher's PLSD, Sham Sal vs Sham drug: 0.0244
Female 129S6/SvEv mice [1]; Ovariectomized cohort, 1 week prophylactic drug, Contextual Fear Conditioning Re-exposure, FIG. 10B, Sham vs OVX, same drug, K (10), (2R,6R)-HNK (0.025)
  p, Freezing (min 1-5), Fisher's PLSD, Sham drug vs OVX drug: 0.3764
Female 129S6/SvEv mice [1]; Ovariectomized cohort, 1 week prophylactic drug, Contextual Fear Conditioning Re-exposure, FIG. 10C, OVX mice, K (10), (2R,6R)-HNK (0.025)
  p, Freezing Average (min 1-5), Fisher's PLSD, OVX Sal vs OVX drug: 0.2290
Female 129S6/SvEv mice [1]; [5]
  * (significance), Freezing Average (min 1-5), Fisher's PLSD, Sham Sal vs Sham drug: * (* p<0.05)
  p, Freezing Average (min 1-5), Fisher's PLSD, Sham Sal vs Sham drug: 0.0244
Female 129S6/SvEv mice [1]; Ovariectomized cohort, 1 week prophylactic drug, Contextual Fear Conditioning Re-exposure, FIG. 10C, Sham vs OVX, same drug, K (10), (2R,6R)-HNK (0.025)
  p, Freezing Average (min 1-5), Fisher's PLSD, Sham drug vs OVX drug: 0.3764
Female 129S6/SvEv mice [1]; Ovariectomized, E2/P4 replacement, 1 week prophylactic drug, Contextual Fear Conditioning Re-exposure, FIG. 10E, E2/P4 mice, K (10), (2R,6R)-HNK (0.025)
  p, Freezing (min 1-5), Fisher's PLSD, E2/P4 Sal vs E2/P4 drug: 0.4219
Female 129S6/SvEv mice [1]; Ovariectomized, E2/P4 replacement, 1 week prophylactic drug, Contextual Fear Conditioning Re-exposure, FIG. 10E, Vehicle (hormone) mice, K (10), (2R,6R)-HNK (0.025)
  p, Freezing (min 1-5), Fisher's PLSD, Vehicle Sal vs Vehicle drug: 0.9324
Female 129S6/SvEv mice [1]; Ovariectomized, E2/P4 replacement, 1 week prophylactic drug, Contextual Fear Conditioning Re-exposure, FIG. 10E, Vehicle vs E2/P4, same drug, K (10), (2R,6R)-HNK (0.025)
  p, Freezing (min 1-5), Fisher's PLSD, Vehicle drug vs E2/P4 drug: 0.5588
Female 129S6/SvEv mice [1]; Ovariectomized, E2/P4 replacement, 1 week prophylactic drug, Contextual Fear Conditioning Re-exposure, FIG. 10F, E2/P4 mice, K (10), (2R,6R)-HNK (0.025)
  p, Freezing Average (min 1-5), Fisher's PLSD, E2/P4 Sal vs E2/P4 drug: 0.4219
Female 129S6/SvEv mice [1]; Ovariectomized, E2/P4 replacement, 1 week prophylactic drug, Contextual Fear Conditioning Re-exposure, FIG. 10F, Vehicle (hormone) mice, K (10), (2R,6R)-HNK (0.025)
  p, Freezing Average (min 1-5), Fisher's PLSD, Vehicle Sal vs Vehicle drug: 0.9324
Female 129S6/SvEv mice [1]; Ovariectomized, E2/P4 replacement, 1 week prophylactic drug, Contextual Fear Conditioning Re-exposure, FIG. 10F, Vehicle vs E2/P4, same drug, K (10), (2R,6R)-HNK (0.025)
  p, Freezing Average (min 1-5), Fisher's PLSD, Vehicle drug vs E2/P4 drug: 0.5588
Female 129S6/SvEv mice [1]; Ovariectomized, E2/P4 replacement, 1 week prophylactic drug, Contextual Fear Conditioning Training, FIG. 10D, E2/P4 mice, K (10), (2R,6R)-HNK (0.025)
  p, Freezing (min 1-5), Fisher's PLSD, E2/P4 Sal vs E2/P4 drug: 0.7901
Female 129S6/SvEv mice [1]; Ovariectomized, E2/P4 replacement, 1 week prophylactic drug, Contextual Fear Conditioning Training, FIG. 10D, Vehicle (hormone) mice, K (10), (2R,6R)-HNK (0.025)
  p, Freezing (min 1-5), Fisher's PLSD, Vehicle Sal vs Vehicle drug: 0.6290
Female 129S6/SvEv mice [1]; [6]
  * (significance), Freezing (min 1-5), Fisher's PLSD, Vehicle drug vs E2/P4 drug: ** (** p<0.01)
  p, Freezing (min 1-5), Fisher's PLSD, Vehicle drug vs E2/P4 drug: 0.0067
Female 129S6/SvEv mice [1]; [7]
  *, Freezing (min 1): * (* p<0.05)
  p, Freezing (min 1): 0.0399
Female 129S6/SvEv mice [1]; Sal vs. (2R,6R)-HNK (0.025), Fisher's PLSD, 3 day prophylactic drug/Contextual Fear Conditioning Training
  p, Freezing (min 5): 0.9911
Female 129S6/SvEv mice [1]; [8]
  p, Freezing (min 1-5): 0.2199
  p, Freezing (min 5): 0.0731
Female 129S6/SvEv mice [1]; Sal vs. (2R,6R)-HNK (0.025), t-test, 24 hour prophylactic drug/Contextual Fear Conditioning Re-exposure
  p, Freezing Average (min 1-5): 0.2334
Female 129S6/SvEv mice [1]; ovariectomized mice, hormone replacement
  Freezing during CFC Training, E2/P4+drug vs vehicle+drug: froze significantly more; also recorded: exhibited increased freezing
Female 129S6/SvEv mice [1]; ovariectomized mice, vehicle condition
  Freezing during CFC re-exposure vs saline: froze at comparable levels
Female 129S6/SvEv mice [1]; single i.p. injection 1 week before 3-shock CFC, all doses, female mice
  Freezing during re-exposure to the CFC training context vs saline: do not significantly alter freezing; also recorded: did not alter overall freezing
Female 129S6/SvEv mice [1]; single injection 1 week before stressor, female mice
  Attenuation of learned fear: do not alter learned fear; also recorded: do not attenuate learned fear
Male mice
  Prophylactically effective dose in males: 0.075 mg/kg
Female 129S6/SvEv mice [2]
  * (significance), Sal vs. drug, Fisher's PLSD: Immobility Time (min 1), Forced Swim Test Day 1: *** (*** p<0.0001)
  * (significance), Sal vs. drug, Fisher's PLSD: Immobility Time (min 1), Forced Swim Test Day 2: ** (** p<0.01)
  * (significance), Sal vs. drug, Fisher's PLSD: Immobility Time (min 2), Forced Swim Test Day 1: *** (*** p<0.0001)
  * (significance), Sal vs. drug, Fisher's PLSD: Immobility Time (min 3), Forced Swim Test Day 1: *** (*** p<0.0001)
  * (significance), Sal vs. drug, Fisher's PLSD: Immobility Time (min 4), Forced Swim Test Day 1: *** (*** p<0.0001)
  * (significance), Sal vs. drug, Fisher's PLSD: Immobility Time (min 5), Forced Swim Test Day 1: *** (*** p<0.0001)
  * (significance), Sal vs. drug, Fisher's PLSD: Immobility Time (min 5), Forced Swim Test Day 2: * (* p<0.05)
  * (significance), Sal vs. drug, Fisher's PLSD: Immobility Time (min 6), Forced Swim Test Day 1: *** (*** p<0.0001)
  * (significance), Sal vs. drug, Fisher's PLSD: Immobility Time (min 6), Forced Swim Test Day 2: ** (** p<0.01)
  * (significance), Sal vs. drug, Fisher's PLSD: Immobility Time Average (min 3-6), Forced Swim Test Day 2: * (* p<0.05)
  * (significance), Sal vs. drug, Fishers PLSD: Immobility Time Average (min 1-6), Forced Swim Test Day 1: *** (*** p<0.0001)
  p, Sal vs. drug, Fisher's PLSD: Immobility Time (min 1), Forced Swim Test Day 1: <0.0001
  p, Sal vs. drug, Fisher's PLSD: Immobility Time (min 1), Forced Swim Test Day 2: 0.0073
  p, Sal vs. drug, Fisher's PLSD: Immobility Time (min 2), Forced Swim Test Day 1: <0.0001
  p, Sal vs. drug, Fisher's PLSD: Immobility Time (min 2), Forced Swim Test Day 2: 0.8092
  p, Sal vs. drug, Fisher's PLSD: Immobility Time (min 3), Forced Swim Test Day 1: <0.0001
  p, Sal vs. drug, Fisher's PLSD: Immobility Time (min 4), Forced Swim Test Day 1: <0.0001
  p, Sal vs. drug, Fisher's PLSD: Immobility Time (min 5), Forced Swim Test Day 1: <0.0001
  p, Sal vs. drug, Fisher's PLSD: Immobility Time (min 5), Forced Swim Test Day 2: 0.0328
  p, Sal vs. drug, Fisher's PLSD: Immobility Time (min 6), Forced Swim Test Day 1: <0.0001
  p, Sal vs. drug, Fisher's PLSD: Immobility Time (min 6), Forced Swim Test Day 2: 0.0069
  p, Sal vs. drug, Fisher's PLSD: Immobility Time Average (min 3-6), Forced Swim Test Day 2: 0.0177
  p, Sal vs. drug, Fishers PLSD: Immobility Time Average (min 1-6), Forced Swim Test Day 1: <0.0001
